For data set [1], the system named is human squamous cell lung carcinoma (T222). The data set is described as follows: In vitro cytotoxicity, [3H]leucine uptake, T222 cells. Format: cell-based. To be noted: for IC50: read-out: IC50 (50% cytotoxic concentration). As to the method:
(§1) The cytotoxicities of 4-12 were determined by incubation (48 hours) of drug with a human squamous cell lung carcinoma (T222) and percent inhibition determined by measurement of [^3 H]leucine uptake. T222 (Masui, et al. Cancer, 44(3): 1002-1007, 1984) human squamous carcinoma and P3/UCLA (Varki, et al., Cancer Res. 44: 681-687, 1984) human lung carcinoma cells were grown in DMEM medium supplemented with 10% fetal bovine serum and 50 ug/mL gentamicin using standard tissue culture techniques. 1×10^4 target cells were distributed in each well of 96 well tissue culture plates and incubated in leucine deficient medium (leucine free DMEM plus 13 ug/mL L-leucine, 29.2 ug/mL L glutamine, 50 ug/mL gentamicin and 10% dialyzed fetal calf serum) for 16 hours at 37° C. in 5% CO2. The medium was then removed aseptically and compound dilutions were added in 200 ul of leucine deficient medium. Following an additional 48 hour incubation, 4 uCi ^3 H-leucine (NEN, Boston, Mass.) were added to each well and the plates were returned to the incubator for 24 hours. Radioactivity incorporated into macromolecules was determined using an automated cell harvester and liquid scintillation techniques. Data were evaluated as percent reduction in incorporation of radioactivity relative to controls incubated in medium without compound to yield an 50% cytotoxic concentration (IC50).

For data set [2], the system named is minor groove of double stranded DNA. The note with it: cited from earlier work.
The conditions of data set [3]: single intravenous subtherapeutic dose; healthy mice; cited from earlier work.
The test system of data set [4] is human lung adenocarcinoma (P3/UCLA). The data set is described as follows: In vitro cytotoxicity, similar protocol, P3/UCLA cells. It counts as cell-based. As for the experimental part:
as §1

Another data set deals with T222 tumor. The data set is described as follows: Nude mouse xenograft, T222 tumor burden (i.v.). Format: in vivo, nude mice. Also noted: inhibition of growth of tumors (in words): dose or concentration left out as unconfirmed. To be noted: for Number of Deaths/Number of Mice / Percent Inhibition of Tumor Growth: days 3, 5 and 7. As for the experimental part:
Prior to each xenograft experiment, cells were collected by treatment with Trypsin/EDTA (Gibco, Life Technologies, Grand Island, N.Y.) and washed with supplemented DMEM and finally suspended in Hanks balanced salt solution. 1×10^7 cells were injected s.c. into the flank of young adult female nude mice (Charles River Breeding Laboratories, Boston, Mass.). The mice were treated by i.v. injection in the tail vein at various time points. Tumor measurements were taken in two dimensions and converted to an estimate of mass using the formula [(length) (width^2)/2] as described by Geran, et al.. Cancer Chemother. Rep., 3:1-103, 1972. Control groups contained 10 mice with test groups containing 5 mice each. The Student test was used to evaluate differences between mean tumor masses.

Setting [5] is: T222 human squamous cell lung carcinoma, 48 hours incubation, [3H]leucine uptake.

The structures appear in SMILES notation. Converted amounts (≈) assume the structure as drawn. Read-outs that look alike come from different tables or passages of the source.

Turning to `Cc1coc2c(O)cc3c(c12)C(CCl)CN3C(=O)c1cc2cc(NC(=O)c3cc4ccccc4s3)ccc2o1` (single isomer, unassigned; (+)) [Compound 9], in data set [1] (setting [5]), the IC50 is 0.56 ng/mL (≈ 1.01 nM).

With `Cc1coc2c(O)cc3c(c12)C(CCl)CN3C(=O)c1cc2cc(NC(=O)c3cc4ccccc4o3)ccc2s1` (single isomer, unassigned; (+)) [Compound 11], the IC50 in data set [1] (setting [5]) amounted to 0.26 ng/mL (≈ 0.467 nM).

With `Cc1coc2c(O)cc3c(c12)C(CCl)CN3C(=O)c1cc2cc(NC(=O)c3cc4ccccc4[nH]3)ccc2o1` (single isomer, unassigned; (+)) [Compound 7], the IC50 in data set [1] (setting [5]) was determined as 0.23 ng/mL (≈ 0.426 nM).

Regarding `CCC1(O)CC2CN(CCc3c([nH]c4ccccc34)C(C(=O)OC)(c3cc4c(cc3OC)N(C)C3C(O)(C(=O)NN)C(O)C5(CC)C=CCN6CCC43C65)C2)C1` (stereo not shown) [4-desacetylvinblastine-3-carboxhydrazide, reference compound], the IC50 in data set [1] (Homo sapiens, T222, 48 h) turned out to be 3 ng/mL (≈ 3.9 nM).

Turning to `COc1c(O)c2c(c3cc(C(=O)N4CCc5c4c(O)c(OC)c4[nH]c(C(=O)N6CC7CC78C6=CC(=O)c6[nH]cc(C)c68)cc54)[nH]c13)CCN2C(N)=O` (stereo not shown) [CC-1065], the DNA binding entry in data set [2] is on record as “binds covalently to the minor groove of double stranded DNA”. Further, the “delayed deaths / hepatotoxicity” value in data set [3] is given as “led to delayed deaths of healthy mice as a result of the hepatotoxicity”.

With `Cc1coc2c(O)cc3c(c12)C(CCl)CN3C(=O)c1cc2cc(NC(=O)c3cc4ccccc4[nH]3)ccc2[nH]1` (single isomer, unassigned; (+)) [Compound 4], the figures for the IC50 in data set [4] and in data set [1] (setting [5]) were 0.27 ng/mL (≈ 0.501 nM) and 0.17 ng/mL (≈ 0.315 nM), respectively. Also, the “Number of Deaths/Number of Mice” value in the data set with T222 tumor (0.05 mg/kg i.v.) is reported as 0/5; in the data set on T222 tumor (0.1 mg/kg i.v.), 0/5; in the data set on T222 tumor (0.2 mg/kg i.v.), 1/5; in the data set with T222 tumor (0.4 mg/kg i.v.) it was 5/5. For the same compound, the figures for the “Percent Inhibition of Tumor Growth” value with T222 tumor (0.05 mg/kg i.v.), with T222 tumor (0.1 mg/kg i.v.) and with T222 tumor (0.2 mg/kg i.v.) were 68%, 73% and 85%, respectively. For the same compound, the “inhibition of growth of tumors (in words)” value in the data set with T222 tumor (intravenously on days 3, 5 and 7, T222 burden injected s.c. at day 0) is “inhibited the growth of tumors”.

As to `Cc1coc2c(O)cc3c(c12)C(CCl)CN3C(=O)c1cc2cc(NC(=O)c3cc4ccccc4o3)ccc2o1` (single isomer, unassigned; (+)) [Compound 8], in data set [1] (setting [5]), the IC50 was 0.37 ng/mL (≈ 0.684 nM).

In the case of `Cc1coc2c(O)cc3c(c12)C(CCl)CN3C(=O)c1cc2cc(NC(=O)c3cc4ccccc4[nH]3)ccc2s1` (single isomer, unassigned; (+)) [Compound 10], the IC50 in data set [1] (setting [5]) stood at 0.29 ng/mL (≈ 0.522 nM).

As for `Cc1coc2c(O)cc3c(c12)C(CCl)CN3C(=O)c1cc2cc(NC(=O)c3cc4ccccc4o3)ccc2[nH]1` (single isomer, unassigned; (+)) [Compound 5], the IC50 in data set [1] (setting [5]) was found to be 0.15 ng/mL (≈ 0.278 nM).

For `Cc1coc2c(O)cc3c(c12)C(CCl)CN3C(=O)c1cc2cc(NC(=O)c3cc4ccccc4[nH]3)ccc2[nH]1` (stereo not drawn) [enantiomer of 4], in data set [1] (T222 cell line, compared with 4), the “antineoplastic potency relative to 4” value was “approximately ten fold less potent”.

In the case of `Cc1coc2c(O)cc3c(c12)C(CCl)CN3C(=O)c1cc2cc(NC(=O)c3cc4ccccc4s3)ccc2s1` (single isomer, unassigned; (+)) [Compound 12], the IC50 in data set [1] (setting [5]) is 0.2 ng/mL (≈ 0.349 nM).

Turning to `Cc1coc2c(O)cc3c(c12)C(CCl)CN3C(=O)c1cc2cc(NC(=O)c3cc4ccccc4s3)ccc2[nH]1` (single isomer, unassigned; (+)) [Compound 6], in data set [1] (setting [5]), the IC50 was 0.2 ng/mL (≈ 0.36 nM).
